Results as given in patent US20100168075A1, “Novel 2-Azetidinone Derivatives As Cholesterol Absorption Inhibitors For The Treatment Of Hyperlipidaemic Conditions” (ASTRAZENECA AB, priority 2005, published 2010).

Columns and labels:
[1] = tested on: ^14C-cholesterol absorption; experiment: In vivo testing of cholesterol absorption inhibitors (A); details: Mus musculus, po; 0.2 μmol/kg, gavage, procedure A, C57BL/6 female mice
Procedure: In Vivo Testing of Cholesterol Absorption Inhibitors (A)
C57BL/6 female mice were maintained on regular chow diet and housed in individual cages to collect faeces. Mice were fasted for 3 hours and then gavaged with vehicle or compound. Half an hour later the mice were gavaged with radiolabelled cholesterol. Six hours after the ^14C-cholesterol gavage blood samples were taken via the tail and plasma prepared to determine how much cholesterol were absorbed. 24 hours after the gavage of ^14C-cholesterol the mice were bled and plasma were prepared for analysis. Faeces were collected for 24 hours to assess absorption efficiency.

Caco-2 cells = experiment: Absorption in a Caco-2 cells model; format: in vitro ADME
Procedure: Absorption of the compounds of formula (I) was tested in a Caco-2 cells model (Gastroenterology 1989, 96, 736): […]

Caco value (Caco-2 cells) | SMILES | inhibition at 0.2 µmol/kg [1]
– | N[C@H](CCCCNC(=O)CNC(=O)COc1ccc([C@@H]2[C@@H](SCC(O)c3ccc(F)cc3)C(=O)N2c2ccc(F)cc2)cc1)C(=O)O (stereo partly drawn) [Example 10, N^6-(N-{[4-((2R,3R)-1-(4-fluorophenyl)-3-{[2-(4-fluorophenyl)-2-hydroxyethyl]thio}-4-oxoazetidin-2-yl)phenoxy]acetyl}glycyl)-D-lysine] | 38%
0.61 ×10⁻⁶ cm/s | CC(=O)[O-].C[N+](C)(C)CCNC(=O)[C@@H](CC1CCCCC1)NC(=O)CNC(=O)COc1ccc([C@@H]2[C@@H](SCC(O)c3ccc(F)cc3)C(=O)N2c2ccc(F)cc2)cc1 (stereo partly drawn) [Example 17, N-{[4-((2R,3R)-1-(4-fluorophenyl)-3-{[(2R or $)-2-(4-fluorophenyl)-2-hydroxyethyl]thio}-4-oxoazetidin-2-yl)phenoxy]acetyl}glycyl-3-cyclohexyl-N-[2-(trimethylammonio)ethyl]-D-alaninamide acetate] | –
